# The supplement of paper PMC4977894
# ± gives the standard deviation of the averaged measurements.
# Assays:
# [1] = test system: Homo sapiens (human subject panel, olfactory perception); assay: perceived odor intensity rating (rating 0-100); higher = stronger perceived smell
# How it was run: (§1)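 Values for familiarity, intensity and pleasantness are averaged over subjects. The panel of 55 healthy people aged 18–50 excluded the six lowest performers and rated each paraffin-oil dilution of a molecule at high and low concentrations. Ratings were made only for stimuli the subject reported smelling, on a slider converted to a 0–100 scale.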
# [2] = test system: Homo sapiens (human subject panel, olfactory perception); assay: perceived odor pleasantness rating (rating 0-100); higher = more pleasant
# How it was run: as §1
# [3] = test system: Homo sapiens (human subject panel, olfactory perception); assay: perceived odor familiarity rating (rating 0-100); higher = more familiar
# How it was run: as §1
# [4] = odor dilution in paraffin oil: 1/10
# [5] = odor dilution in paraffin oil: 1/1,000
# [6] = odor dilution in paraffin oil: 1/100,000
# [7] = odor dilution in paraffin oil: 1/10,000,000
Compound,"perceived odor intensity rating [1, 4]","perceived odor intensity rating [1, 5]","perceived odor pleasantness rating [2, 4]","perceived odor pleasantness rating [2, 5]","perceived odor familiarity rating [3, 4]","perceived odor familiarity rating [3, 5]","perceived odor intensity rating [1, 6]","perceived odor pleasantness rating [2, 6]","perceived odor familiarity rating [3, 6]","perceived odor intensity rating [1, 7]","perceived odor pleasantness rating [2, 7]","perceived odor familiarity rating [3, 7]"
"CC(=O)OC(C)(C)Cc1ccccc1 [alpha,alpha-Dimethylphenethyl acetate]",79 ± 17,36.6 ± 30,51.9 ± 31,52.5 ± 21,48.8 ± 32,40.3 ± 30,–,–,–,–,–,–
CCCCCC(C=O)=Cc1ccccc1 [alpha-Amylcinnamaldehyde],65.5 ± 29,54.4 ± 32,43.5 ± 27,33.2 ± 26,45.1 ± 31,36 ± 27,–,–,–,–,–,–
CC(O)c1ccccc1 (stereo not drawn) [alpha-Methylbenzyl alcohol],–,48.4 ± 30,–,50.4 ± 26,–,45 ± 32,15.4 ± 16,44.5 ± 23,30.4 ± 30,–,–,–
CC1=CCC2CC1C2(C)C (stereo not drawn) [alpha-pinene],–,61.4 ± 26,–,45.6 ± 26,–,46.6 ± 31,27.9 ± 30,54.4 ± 21,41.4 ± 29,–,–,–
COc1ccccc1 [anisole],–,75.3 ± 24,–,29.3 ± 26,–,45 ± 34,30.9 ± 30,50.2 ± 26,35.4 ± 33,–,–,–
O=Cc1ccccc1 [benzaldehyde],–,77.4 ± 17,–,61.5 ± 29,–,61.3 ± 27,30.6 ± 29,64.6 ± 22,45.3 ± 34,–,–,–
O=C(c1ccccc1)c1ccccc1 [benzophenone],67.7 ± 27,24.9 ± 29,36.2 ± 24,57.5 ± 25,38.6 ± 31,33.2 ± 28,–,–,–,–,–,–
CC(=O)OCc1ccccc1 [benzyl acetate],–,65.8 ± 29,–,60.4 ± 25,–,52.3 ± 33,36.3 ± 28,54.7 ± 20,42.3 ± 27,–,–,–
OCc1ccccc1 [benzyl alcohol],74.2 ± 18,45.4 ± 26,46.7 ± 25,52.4 ± 20,55 ± 29,40.2 ± 25,–,–,–,–,–,–
NCCC(=O)O [beta-Alanine],38.4 ± 28,33.9 ± 25,50.1 ± 22,50.2 ± 26,35.9 ± 30,40.9 ± 30,–,–,–,–,–,–
CC(=O)/C=C/C1=C(C)CCCC1(C)C [beta-Ionone],–,69.7 ± 25,–,49.2 ± 27,–,52.4 ± 30,50.6 ± 32,62.6 ± 25,49.8 ± 31,–,–,–
CCCCO [butanol],–,–,–,–,–,–,19.8 ± 23,42.7 ± 25,35.8 ± 32,10.7 ± 19,49.7 ± 26,27 ± 30
CCCCOC(C)=O [butyl acetate],–,76.5 ± 18,–,55.6 ± 27,–,67.5 ± 29,31.6 ± 24,61.1 ± 19,43.7 ± 31,–,–,–
CCCCOC(=O)CCC [butyl butyrate],–,57.9 ± 27,–,38.1 ± 26,–,49.7 ± 28,25.5 ± 29,48 ± 24,41.3 ± 30,–,–,–
CCCC=O [butyraldehyde],–,83.4 ± 15,–,17.7 ± 18,–,51.1 ± 29,51.9 ± 28,32.2 ± 21,41.8 ± 31,–,–,–
CCCC(=O)O [butyric acid],–,86.8 ± 13,–,21.1 ± 27,–,53.1 ± 31,76.8 ± 23,16 ± 18,50.2 ± 34,–,–,–
CCCCCC(=O)O [caproic acid],–,84.3 ± 15,–,14.3 ± 19,–,46.7 ± 33,66.5 ± 28,19.4 ± 19,45.1 ± 29,–,–,–
C=C(C)C1CC=C(C)C(OC(C)=O)C1 (stereo unspecified) [carvyl acetate],–,75 ± 25,–,27.2 ± 22,–,43.5 ± 32,38.6 ± 33,44.1 ± 23,37.2 ± 30,–,–,–

Compound,"perceived odor intensity rating [1, 4]","perceived odor intensity rating [1, 5]","perceived odor pleasantness rating [2, 4]","perceived odor pleasantness rating [2, 5]","perceived odor familiarity rating [3, 4]","perceived odor familiarity rating [3, 5]","perceived odor intensity rating [1, 6]","perceived odor pleasantness rating [2, 6]","perceived odor familiarity rating [3, 6]","perceived odor intensity rating [1, 7]","perceived odor pleasantness rating [2, 7]","perceived odor familiarity rating [3, 7]"
OC/C=C/c1ccccc1 [cinnamyl alcohol],–,75.8 ± 21,–,47.4 ± 31,–,52.6 ± 34,60.3 ± 28,42.9 ± 28,53.7 ± 33,–,–,–
CCCCCC/C=C\CO [cis-2-Nonen-1-ol],–,77.9 ± 21,–,34.7 ± 25,–,46.3 ± 30,54.7 ± 32,36 ± 21,40.8 ± 30,–,–,–
CC/C=C\CCO [cis-3-Hexen-1-ol],–,81.9 ± 16,–,51 ± 31,–,69.6 ± 30,39.7 ± 28,60 ± 22,60.5 ± 30,–,–,–
CC/C=C\CCOC(=O)c1ccccc1 [cis-3-Hexenyl benzoate],–,40.4 ± 31,–,40.8 ± 19,–,36.3 ± 28,28.1 ± 26,51.2 ± 13,34 ± 23,–,–,–
CC/C=C\CCOC(=O)C(C)C [cis-3-Hexenyl isobutyrate],–,73.3 ± 25,–,47.1 ± 29,–,55.4 ± 31,30 ± 28,40.8 ± 22,40.1 ± 30,–,–,–
CC/C=C\CCOC(=O)C(C)O (stereo not drawn) [cis-3-Hexenyl lactate],–,67.2 ± 29,–,51.7 ± 26,–,57.1 ± 31,30.3 ± 28,46.7 ± 22,38.6 ± 30,–,–,–
CC/C=C\CCOC(=O)Cc1ccccc1 [cis-3-Hexenyl phenylacetate],–,51 ± 31,–,40.1 ± 26,–,41.3 ± 30,14.4 ± 23,52.2 ± 25,37.5 ± 32,–,–,–
CC/C=C\CCOC(=O)CC [cis-3-Hexenyl propionate],–,61.7 ± 26,–,64.4 ± 28,–,60.9 ± 30,20.4 ± 23,52 ± 20,30.7 ± 28,–,–,–
CC/C=C\CCOC(=O)c1ccccc1O [cis-3-Hexenyl salicylate],–,49.2 ± 30,–,48.1 ± 26,–,40.2 ± 26,9.75 ± 16,49.8 ± 24,36.8 ± 33,–,–,–
C/C=C(\C)C(=O)OCC/C=C\CC [cis-3-Hexenyl tiglate],79.2 ± 18,45.7 ± 30,47.2 ± 31,47.6 ± 28,53.4 ± 31,47.9 ± 30,–,–,–,–,–,–
CC/C=C\CCOC(C)=O [cis-3-hexenyl acetate],–,76.7 ± 22,–,63.8 ± 30,–,73.6 ± 28,41 ± 31,70.9 ± 20,64.7 ± 30,–,–,–
CCCCC/C=C\CCCO [cis-4-Decen-1-ol],–,65.4 ± 26,–,49.2 ± 25,–,49.8 ± 29,29.2 ± 32,53.6 ± 27,40.3 ± 32,–,–,–
CC/C=C\CCC=O [cis-4-Heptenal],–,–,–,–,–,–,66.8 ± 29,28.7 ± 25,46.1 ± 33,56.2 ± 31,32.5 ± 26,45.2 ± 31
CC/C=C\CCCCO [cis-5-Octen-1-ol],–,75.7 ± 20,–,59.3 ± 28,–,69.2 ± 27,40.6 ± 30,66.6 ± 21,59.5 ± 29,–,–,–
O=c1ccc2ccccc2o1 [coumarin],77.5 ± 16,62.8 ± 26,67.2 ± 26,65.1 ± 25,63.8 ± 30,55.9 ± 31,–,–,–,–,–,–
CC(C)c1ccc(C=O)cc1 [cuminaldehyde],–,59.1 ± 31,–,51.2 ± 28,–,50.9 ± 35,16.2 ± 20,58.1 ± 26,31.3 ± 26,–,–,–
C=C(C)[C@H]1CC=C(C)CC1 [d-Limonene],–,29.6 ± 26,–,52.6 ± 21,–,43.6 ± 28,45.4 ± 36,30.9 ± 25,41.1 ± 28,–,–,–
CCCCCCCCCC=O [decanal],78.9 ± 20,59.9 ± 25,28.7 ± 23,33.3 ± 23,51.9 ± 35,44 ± 30,–,–,–,–,–,–
